Measured values: US8269026B2, “Lupane derivatives useful for treating HIV” (priority 2008, dated 2012)
Read-outs that look alike come from different tables or passages of the source.

Tested on: HIV-1 (HIVIIIB) replication in MT2 cell line
Assay: HIV-1 replication in MT2 cell line with and without 30% human serum (viral RT activity in supernatant)
Type: cell-based
Conditions: Human immunodeficiency virus 1, MT2 cells, average IC50 if tested more than once
Outline: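 Read-out is supernatant reverse transcriptase activity on day 5 post-infection, giving IC50 and IC90. Compounds were titrated in complete medium ± 30% human serum, re-dosed after 3 days, on MT2 cells exposed for 3 h to HIVIIIB at MOI 0.5 then washed.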

[1] = with 30% human serum, read-out: MT2 (HIVIIIB) with HS 30% IC50 range
[2] = without human serum, read-out: MT2 (HIVIIIB) IC50 range

SMILES | IC50 [1] [nM] | IC50 [2] [nM]
CC(C)C1=C2[C@H]3CC[C@@H]4[C@@]5(C)CC[C@H](OC(=O)CC(C)(C)C(=O)O)C(C)(C)[C@@H]5CC[C@@]4(C)[C@]3(C)CC[C@@]2(NC(=O)c2ccccc2)CC1=O [19-2, 3β-O-(3′,3% Dimethylsuccinyl)-17β-benzamido-21-oxolup-18-ene] | < 199 | < 199
CC(C)C1=C2C3CCC4[C@@]5(C)CC[C@H](OC(=O)CC(C)(C)C(=O)O)C(C)(C)C5CC[C@@]4(C)[C@]3(C)CC[C@@]2(NC(=O)NCc2ccncc2)CC1=O (stereo partly drawn) [17-31, 3β-O-(3′,3′-Dimethylsuccinyl)-17β-[N′-(pyridin-4-ylmethyl)ureido]-21-oxolup-18-ene] | < 199 | 
CC(C)C1=C2C3CCC4[C@@]5(C)CC[C@H](OC(=O)CC(C)(C)C(=O)O)C(C)(C)C5CC[C@@]4(C)[C@]3(C)CC[C@@]2(NC(=O)OCC2(N)CC2)CC1=O (stereo partly drawn) [20-12, 3β-O-(3′,3′-Dimethylsuccinyl)-17β-(1-amino-cyclopropylmethoxycarbonylamino)-21-oxolup-18-ene] | < 199 | 
Cc1ncccc1C(=O)N[C@@]12CC[C@]3(C)[C@H](CC[C@@H]4[C@@]5(C)CC[C@H](OC(=O)CC(C)(C)C(=O)O)C(C)(C)[C@@H]5CC[C@]43C)C1=C(C(C)C)C(=O)C2 [19-46, 3β-O-(3′,3′-Dimethylsuccinyl)-17β-(2-methylpyridin-3-yl)amido-21-oxolup-18-ene] | < 199 | 
CC(C)C1=C2C3CCC4[C@@]5(C)CC[C@H](OC(=O)CC(C)(C)C(=O)O)C(C)(C)C5CC[C@@]4(C)[C@]3(C)CC[C@@]2(NC(=O)NCc2ncccn2)CC1=O (stereo partly drawn) [17-67, 3β-O-(3′,3′-Dimethylsuccinyl)-17β-[N′-(pyrimidin-2-ylmethyl)ureido]-21-oxolup-18-ene] | < 199 | 
Cc1nnc(NC(=O)N[C@@]23CC[C@]4(C)C(CCC5[C@@]6(C)CC[C@H](OC(=O)CC(C)(C)C(=O)O)C(C)(C)C6CC[C@]54C)C2=C(C(C)C)C(=O)C3)o1 (stereo partly drawn) [17-19, 3β-O-(3′,3′-Dimethylsuccinyl)-17β-(N′-5-methyl-[1,3,4]oxadiazol-2-yl-ureido)-21-oxolup-18-ene] | < 199 | 
Cc1nnc(C(=O)N[C@@]23CC[C@]4(C)C(CCC5[C@@]6(C)CC[C@H](OC(=O)[C@H]7CCC[C@@H](C(=O)O)C7)C(C)(C)C6CC[C@]54C)C2=C(C(C)C)C(=O)C3)o1 (stereo partly drawn) [19-81, 3β-O-(cis-Cyclohexane-3′-carboxylic acid-1′-carboxyl)-17β-[(5-methyl-[1,3,4]oxadiazol-2-carbonyl)-amino]-21-oxolup-18-ene] | 200 to 999 | 
CC(C)C1=C2C3CCC4[C@@]5(C)CC[C@H](OC(=O)CC(C)(C)C(=O)O)C(C)(C)C5CC[C@@]4(C)[C@]3(C)CC[C@@]2(NC(=O)CN2CCC2)CC1=O (stereo partly drawn) [19-73, 3β-O-(3′,3′-Dimethylsuccinyl)-17β-(1-azetidin-acetamido)-21-oxolup-18-ene] | < 199 | 
CC(=O)N1CCC(NC(=O)N[C@@]23CC[C@]4(C)C(CCC5[C@@]6(C)CC[C@H](OC(=O)CC(C)(C)C(=O)O)C(C)(C)C6CC[C@]54C)C2=C(C(C)C)C(=O)C3)CC1 (stereo partly drawn) [17-11, 3β-O-(3′,3′-Dimethylsuccinyl)-17β-[N′-(1-acetyl-piperidin-4-yl)-ureido]-21-oxolup-18-ene] | < 199 | 
Cc1nc(C(=O)N[C@@]23CC[C@]4(C)C(CCC5[C@@]6(C)CC[C@H](OC(=O)CC(C)(C)C(=O)O)C(C)(C)C6CC[C@]54C)C2=C(C(C)C)C(=O)C3)no1 (stereo partly drawn) [19-68, 3β-O-(3′,3′-Dimethylsuccinyl)-17β-(5-methyl-[1,2,4]oxadiazole-3-amido)-21-oxolup-18-ene] | < 199 | 
CC(C)C1=C2[C@H]3CC[C@@H]4[C@@]5(C)CC[C@H](OC(=O)CC(C)(C)C(=O)O)C(C)(C)[C@@H]5CC[C@@]4(C)[C@]3(C)CC[C@@]2(NC(=O)c2ccccc2F)CC1=O [19-11, 3β-O-(3′,3′-Dimethylsuccinyl)-17β-(2-fluorobenzamido)-21-oxolup-18-ene] | < 199 | < 199
CC(C)C1=C2[C@H]3CC[C@@H]4[C@@]5(C)CC[C@H](OC(=O)CC(C)(C)C(=O)O)C(C)(C)[C@@H]5CC[C@@]4(C)[C@]3(C)CC[C@@]2(NC(=O)c2cccnc2O)CC1=O [19-51, 3β-O-(3′,3′-Dimethylsuccinyl)-17β-(2-hydroxypyridin-3-yl)amido-21-oxolup-18-ene] | < 199 | 
Cc1ccc(C(=O)N[C@@]23CC[C@]4(C)[C@H](CC[C@@H]5[C@@]6(C)CC[C@H](OC(=O)CC(C)(C)C(=O)O)C(C)(C)[C@@H]6CC[C@]54C)C2=C(C(C)C)C(=O)C3)cc1 [19-43, 3β-O-(3′,3′-Dimethylsuccinyl)-17β-(4-methylbenzamido)-21-oxolup-18-ene] | < 199 | 
Cc1cc(C(=O)N[C@@]23CC[C@]4(C)[C@H](CC[C@@H]5[C@@]6(C)CC[C@H](OC(=O)CC(C)(C)C(=O)O)C(C)(C)[C@@H]6CC[C@]54C)C2=C(C(C)C)C(=O)C3)ccn1 [19-52, 3β-O-(3′,3′-Dimethylsuccinyl)-17β-(2-methylpyridin-4-yl)amido-21-oxolup-18-ene] | < 199 | 
Cc1nnc(C(=O)N(C)[C@@]23CC[C@]4(C)[C@H](CC[C@@H]5[C@@]6(C)CC[C@H](OC(=O)CC(C)(C)C(=O)O)C(C)(C)[C@@H]6CC[C@]54C)C2=C(C(C)C)C(=O)C3)o1 [19-69, 3β-O-(3′,3′-Dimethylsuccinyl)-17β-[methyl-(5-methyl-[1,3,4]oxadiazole-2-carbonyl)-amino]-21-oxolup-18-ene] | < 199 | 
Cc1cncc(C(=O)N[C@@]23CC[C@]4(C)[C@H](CC[C@@H]5[C@@]6(C)CC[C@H](OC(=O)CC(C)(C)C(=O)O)C(C)(C)[C@@H]6CC[C@]54C)C2=C(C(C)C)C(=O)C3)c1 [19-47, 3β-O-(3′,3′-Dimethylsuccinyl)-17β-(5-methylpyridin-3-yl)amido-21-oxolup-18-ene] | < 199 | 
CC(C)C1=C2C3CCC4[C@@]5(C)CC[C@H](OC(=O)[C@H]6CCC[C@@H](C(=O)O)C6)C(C)(C)C5CC[C@@]4(C)[C@]3(C)CC[C@@]2(N)CC1=O (stereo partly drawn) [15-2, 3β-O-(cis-Cyclohexane-3′-carboxylic acid-1′-carboxyl)-17β-amino-21-oxolup-18-ene] | > 1000 | 
CC(C)OC(=O)N[C@@]12CC[C@]3(C)[C@H](CC[C@@H]4[C@@]5(C)CC[C@H](OC(=O)CC(C)(C)C(=O)O)C(C)(C)[C@@H]5CC[C@]43C)C1=C(C(C)C)C(=O)C2 [20-2] | < 199 | < 199
CC(C)C1=C2[C@H]3CC[C@@H]4[C@@]5(C)CC[C@H](OC(=O)CC(C)(C)C(=O)O)C(C)(C)[C@@H]5CC[C@@]4(C)[C@]3(C)CC[C@@]2(NC(=O)CN(C)C)CC1=O [19-53, 3β-O-(3′,3′-Dimethylsuccinyl)-17β-(2-dimethylamino-acetamido)-21-oxolup-18-ene] | < 199 | 
CC(C)C1=C2[C@H]3CC[C@@H]4[C@@]5(C)CC[C@H](OC(=O)[C@H]6CCC[C@@H](C(=O)O)C6)C(C)(C)[C@@H]5CC[C@@]4(C)[C@]3(C)CC[C@@]2(NC(=O)OC(C)(C)C)CC1=O [14-2, 3β-O-(cis-Cyclohexane-3′-carboxylic acid-1′-carboxyl)-17β-[N-tert-butyloxycarbonyl-amino]-21-oxolup-18-ene] |  | > 1000
CC(C)C1=C2[C@H]3CC[C@@H]4[C@@]5(C)CC[C@H](OC(=O)CC(C)(C)C(=O)O)C(C)(C)[C@@H]5CC[C@@]4(C)[C@]3(C)CC[C@@]2(NC(=O)N2CCNCC2)CC1=O [17-15, 3β-O-(3′,3′-Dimethylsuccinyl)-17β-[(piperazine-1-carbonyl)-amino]-21-oxolup-18-ene] | < 199 | < 199
CC(C)C1=C2C3CCC4[C@@]5(C)CC[C@H](OC(=O)CC(C)(C)C(=O)O)C(C)(C)C5CC[C@@]4(C)[C@]3(C)CC[C@@]2(NC(=O)c2nnc(C(C)C)o2)CC1=O (stereo partly drawn) [19-84, 3β-O-(3′,3′-Dimethylsuccinyl)-17β-(5-isopropyl-[1,3,4]-oxadiazole-2-amido)-21-oxolup-18-ene] | < 199 | 
CC(C)C1=C2[C@H]3CC[C@@H]4[C@@]5(C)CC[C@H](OC(=O)CC(C)(C)C(=O)O)C(C)(C)[C@@H]5CC[C@@]4(C)[C@]3(C)CC[C@@]2(NC(=O)c2cccs2)CC1=O [19-20, 3β-O-(3′,3′-Dimethylsuccinyl)-17β-(2-thiophene)amido-21-oxolup-18-ene] | < 199 | 
CC(C)C1=C2[C@H]3CC[C@@H]4[C@@]5(C)CC[C@H](OC(=O)CC(C)(C)C(=O)O)C(C)(C)[C@@H]5CC[C@@]4(C)[C@]3(C)CC[C@@]2(NC(=O)NC2CCN(C(=O)OC(C)(C)C)CC2)CC1=O [17-9, 3β-O-(3′,3′-Dimethylsuccinyl)-17β[N′-(1-tert-butyloxycarbonyl-piperidin-4-yl)-ureido]-21-oxolup-18-ene] | < 199 | 
CC(C)C1=C2C3CCC4[C@@]5(C)CC[C@H](OC(=O)CC(C)(C)C(=O)O)C(C)(C)C5CC[C@@]4(C)[C@]3(C)CC[C@@]2(NC(=O)NC(C)c2ccccn2)CC1=O (stereo partly drawn) [17-72, 3β-O-(3′,3′-Dimethylsuccinyl)-17β-[N′-(1-pyridin-2-yl-ethyl)-ureido]-21-oxolup-18-ene] | < 199 | 
CC(C)C1=C2C3CCC4[C@@]5(C)CC[C@H](OC(=O)CC(C)(C)C(=O)O)C(C)(C)C5CC[C@@]4(C)[C@]3(C)CC[C@@]2(NC(=O)N[C@@H](C)C2CCCCC2)CC1=O (stereo partly drawn) [17-54, 3β-O-(3′,3′-Dimethylsuccinyl)-17β-[N′-((S)-1-cyclohexyl-ethyl)ureido]-21-oxolup-18-ene] | < 199 | 
CC(C)C1=C2[C@H]3CC[C@@H]4[C@@]5(C)CC[C@H](OC(=O)CC(C)(C)C(=O)O)C(C)(C)[C@@H]5CC[C@@]4(C)[C@]3(C)CC[C@@]2(NC(=O)C2CCN(C)CC2)CC1=O [19-36, 3β-O-(3′,3′-Dimethylsuccinyl)-17β-(1-methylpiperidine-4-amido)-21-oxolup-18-ene] | < 199 | 
